Laboratory results from US7045528B2, “Benzofused heterozryl amide derivatives of thienopyridines useful as therapeutic agents, pharmaceutical compositions including the same, and methods for their use” (Agouron Pharmaceuticals, Inc., priority 2002, dated 2006).
Like-named read-outs stand apart in the source and are kept apart here.

Tests used:
[1] = biological target: T1, unphosphorylated VEGF-R2Δ50 (FLVK) (Homo sapiens, UniProt P35968, DEL940-989/E990V); assay: VEGF-R2 coupled spectrophotometric assay, unphosphorylated VEGF-R2Δ50 (FLVK); format: biochemical; settings: for inhibition at 0.1 µM: percent inhibition at 100 nM, library amides from Example 101 (R101), crude mixtures in DMSO, read-out: FLVK (% @ 100 nM); for inhibition at 0.05 µM: 50 nM compound, read-out: FLVK (% inh @ 50 nM); for inhibition at 0.05 µM / Ki: unphosphorylated VEGF-R2Δ50
T1 construct: VEGF-R2Δ50 contains residues 806–939 and 990–1171; made in house; host or cells: baculovirus/insect cell system
Procedure, shortened: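 Baculovirus-expressed human VEGF-R2Δ50 (kinase insert partly deleted, E990V), unphosphorylated form; ADP production coupled via PK/LDH to NADH oxidation, read at 340 nm. 20 mM poly(E4Y1), 3 mM ATP, 60 mM MgCl2, 2 mM MnCl2, 200 mM HEPES pH 7.5; 5–40 nM enzyme. Ki from Morrison tight-binding fit.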

PDGFRβ = biological target: T2, PDGFRβ (Homo sapiens, UniProt P09619); assay: PAE-PDGFRβ phosphorylation in PAE-PDGFRB cells assay; format: cell-based
T2 construct: expressed in transfected cells; host or cells: porcine aorta endothelial (PAE)-PDGFRβ cells
Procedure, shortened: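 PAE cells overexpressing human PDGFRβ, serum-starved 16 h (0.1% FBS), were given compound for 1 h at 37 °C (0.5% DMSO) and then stimulated with 1 μg/mL PDGF-BB plus 2 mM Na3VO4 for 8 min. Receptor autophosphorylation was read by capture ELISA (HRP-PY20, TMB, 450 nm); IC50 from 4-parameter fit.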

FGF-R1 = biological target: T3, FGF-R1 (Homo sapiens, UniProt P11362, C488A/C584S/L457V); assay: FGF-R spectrophotometric assay; format: biochemical; settings: percent inhibition at 100 nM; library amides from Example 101 (R101), crude mixtures in DMSO
T3 construct: starting from the endogenous methionine residue 456 to glutamate 766; made in house; host or cells: baculovirus vector expression system
Procedure: FGF-R1 Construct for Assay:
The intracellular kinase domain of human FGF-R1 was expressed using the baculovirus vector expression system starting from the endogenous methionine residue 456 to glutamate 766, according to the residue numbering system of Mohammadi et al., Mol. Cell. Bio., 16, 977–989 (1996). In addition, the construct also has the following 3 amino acid substitutions: L457V, C488A, and C584S.
The spectrophotometric assay was carried out as described above for VEGF-R2, except for the following changes in concentration: FGF-R=50 nM, ATP=2 mM, and poly(E4Y1)=15 mM.

Huvec = assay: bFGF Huvec proliferation; format: cell-based, human; settings: Homo sapiens, HUVEC
[2] = system: human umbilical vein endothelial cells (HUVEC); assay: HUVEC+VEGF proliferation assay; format: cell-based; settings: Homo sapiens, HUVEC; VEGF 6 ng/mL, 72 h, MTT
Procedure, shortened: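 Exponentially growing passage 3–4 HUVEC were starved 24 h in F12K + 1% FBS, given compound (0.1% final DMSO) 1 h before 6 ng/mL final VEGF, then cultured 72 h. Proliferation was read as MTT dye reduction (4 h exposure), absorbance at 595 nm.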

Mouse PK assay = format: in vivo; settings: 50 mg/kg, B6 female mice, plasma; for AUC / Cmax: mouse, po
Procedure: The pharmacokinetics (e.g., absorption and elimination) of drugs in mice were analyzed using the following experiment. Test compounds were formulated as a suspension in a 30:70 (PEG 400:acidified H2O) vehicle. This solution was administered orally (p.o.) and intraperitoneally (i.p.) at 50 mg/kg to two distinct groups (n=4) of B6 female mice. Blood samples were collected via an orbital bleed at time points: 0 hour (pre-dose), 0.5 hr, 1.0 hr, 2.0 hr, and 4.0 hr post dose. Plasma was obtained from each sample by centrifugation at 2500 rpm for 5 min. Test compound was extracted from the plasma by an organic protein precipitation method. For each time bleed, 50 μL of plasma was combined with 1.0 mL of acetonitrile, vortexed for 2 min. and then spun at 4000 rpm for 15 min. to precipitate the protein and extract out the test compound. Next, the acetonitrile supernatant (the extract containing test compound) was poured into new test tubes and evaporated on a hot plate (25° C.) under a steam of N2 gas. To each tube containing the dried test compound extract, 125 μL of mobile phase (60:40, 0.025 M NH4H2PO4+2.5 mL/L TEA:acetonitrile) was added. The test compound was resuspended in the mobile phase by vortexing and more protein was removed by centrifugation at 4000 rpm for 5 min. Each sample was poured into an HPLC vial for test compound analysis on an Hewlett Packard 1100 series HPLC with UV detection. From each sample, 95 μL was injected onto a Phenomenex-Prodigy reverse phase C-18, 150×3.2 mm column and eluted with a 45–50% acetonitrile gradient run over 10 min. Test-compound plasma concentrations (μg/mL) were determined by a comparison to standard curve (peak area vs. conc. μg/mL) using known concentrations of test compound extracted from plasma samples in the manner described above. Along with the standards and unknowns, three groups (n=4) of quality controls (0.25 μg/mL, 1.5 μg/mL, and 7.5 μg/mL) were run to insure the consistency of the analysis. […] The quantitated test samples were plotted for visual display using Kalidagraph software and their pharmacokinetic parameters were determined using WIN NONLIN software.

[3] = library amides from Example 101 (R101), crude mixtures in DMSO, read-out: PAE PDGFR autophos IC50
[4] = PAE cells overexpressing human PDGFRβ, PDGF-BB stimulated, read-out: PAE PDGFR autophos IC50 (nM) AVG

T2 sequence (P09619 33-1106): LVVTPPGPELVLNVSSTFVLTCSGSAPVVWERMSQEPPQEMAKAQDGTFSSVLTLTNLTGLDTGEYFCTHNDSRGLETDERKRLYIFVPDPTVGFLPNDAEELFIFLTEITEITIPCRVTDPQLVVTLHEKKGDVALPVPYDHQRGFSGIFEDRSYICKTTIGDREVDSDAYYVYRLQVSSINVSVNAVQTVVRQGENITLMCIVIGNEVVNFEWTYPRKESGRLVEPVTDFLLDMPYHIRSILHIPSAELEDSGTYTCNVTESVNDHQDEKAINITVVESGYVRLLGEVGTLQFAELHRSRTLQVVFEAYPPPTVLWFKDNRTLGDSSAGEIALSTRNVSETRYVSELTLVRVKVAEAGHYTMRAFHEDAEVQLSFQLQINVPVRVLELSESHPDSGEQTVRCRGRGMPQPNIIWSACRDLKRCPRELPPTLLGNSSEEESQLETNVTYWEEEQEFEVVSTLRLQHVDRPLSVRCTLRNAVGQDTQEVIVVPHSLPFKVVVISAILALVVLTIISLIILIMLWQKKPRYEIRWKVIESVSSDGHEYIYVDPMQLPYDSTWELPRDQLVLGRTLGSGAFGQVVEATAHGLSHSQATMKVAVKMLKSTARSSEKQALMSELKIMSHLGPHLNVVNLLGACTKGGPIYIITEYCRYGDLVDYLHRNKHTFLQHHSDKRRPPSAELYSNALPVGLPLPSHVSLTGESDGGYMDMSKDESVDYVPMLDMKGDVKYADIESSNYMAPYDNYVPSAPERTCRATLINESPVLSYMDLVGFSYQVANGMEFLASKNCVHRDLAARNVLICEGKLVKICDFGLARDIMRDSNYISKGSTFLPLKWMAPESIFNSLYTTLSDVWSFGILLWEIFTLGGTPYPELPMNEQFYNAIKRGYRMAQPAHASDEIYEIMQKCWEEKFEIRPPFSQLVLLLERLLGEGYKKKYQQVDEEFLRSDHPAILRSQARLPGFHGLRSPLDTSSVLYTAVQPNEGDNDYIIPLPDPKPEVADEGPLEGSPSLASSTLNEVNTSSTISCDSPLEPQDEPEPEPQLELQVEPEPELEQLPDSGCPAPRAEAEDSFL
T1 sequence (P35968 with tags, fused parts or gaps DEL940-989/E990V limits assumed): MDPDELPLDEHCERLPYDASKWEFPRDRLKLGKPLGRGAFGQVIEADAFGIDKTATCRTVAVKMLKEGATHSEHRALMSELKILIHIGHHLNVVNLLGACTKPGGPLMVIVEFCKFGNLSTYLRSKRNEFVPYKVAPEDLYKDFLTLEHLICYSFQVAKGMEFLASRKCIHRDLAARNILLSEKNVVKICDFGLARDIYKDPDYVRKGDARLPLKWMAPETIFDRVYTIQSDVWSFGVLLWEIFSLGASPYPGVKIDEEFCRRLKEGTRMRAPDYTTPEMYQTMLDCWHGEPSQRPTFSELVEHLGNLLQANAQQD
T3 sequence (P11362 456-766 L457V/C488A/C584S): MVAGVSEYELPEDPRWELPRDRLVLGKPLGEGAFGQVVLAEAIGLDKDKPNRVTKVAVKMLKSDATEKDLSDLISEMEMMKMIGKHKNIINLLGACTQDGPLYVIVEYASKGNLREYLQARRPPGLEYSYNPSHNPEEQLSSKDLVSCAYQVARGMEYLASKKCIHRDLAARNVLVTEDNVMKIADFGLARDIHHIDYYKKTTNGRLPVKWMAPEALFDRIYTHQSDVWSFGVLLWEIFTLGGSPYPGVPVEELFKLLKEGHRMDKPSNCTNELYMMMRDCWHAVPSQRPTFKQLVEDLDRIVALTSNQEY

Compound	inhibition at 0.1 µM [1]	IC50 (PDGFRβ; [3])	inhibition at 0.1 µM (FGF-R1)	inhibition at 0.05 µM [1]	Ki [1]	mouse Cmin, po (Mouse PK assay)	AUC (Mouse PK assay)	Cmax (Mouse PK assay)	IC50 (PDGFRβ; [4])	IC50 (Huvec)	IC50 [2]
Cc1oc2cc(Oc3ccnc4ccsc34)ccc2c1C(=O)Nc1cc(C2CC2)nn1C	56%	> 100 nM	3%								
Cc1csc(NC(=O)c2c(C)oc3cc(Oc4ccnc5ccsc45)ccc23)n1	62%	> 100 nM	7%								
Cc1oc2cc(Oc3ccnc4ccsc34)ccc2c1C(=O)NCCc1cccc(C(F)(F)F)c1	97%	> 100 nM	0%								
COc1ccc(NC(=O)c2c(C)oc3cc(Oc4ccnc5ccsc45)ccc23)c(OC)n1	92%	> 100 nM	1%								
Cc1oc2cc(Oc3ccnc4ccsc34)ccc2c1C(=O)Nc1nccs1	90%	> 100 nM	20%								
Cc1oc2cc(Oc3ccnc4ccsc34)ccc2c1C(=O)Nc1ccc(N2CCOCC2)nc1 [drawing 369]	101%	57 nM	0%								
CNC(=O)c1c(C)sc2cc(Oc3ccnc4cc(C(=O)N5C[C@H](OC)[C@H](OC)C5)sc34)ccc12 [Example 5, 6-(2-[meso-3,4-dimethoxypyrrolidine-1-carbonyl]thieno[3,2-b]pyridin-7-yloxy)-2-methylbenzo[b]thiophene-3-carboxylic acid methylamide]				73%	1.91 nM	0.256 µg/mL	12.3 µg·h/mL	6.74 µg/mL		235 nM	1.55 nM
Cc1sc2cc(Oc3ccnc4cc(C(=O)N5CCC[C@H]5CO)sc34)ccc2c1C(=O)NC1CC1 [Example 8, 6-(2-[(S)-2-(hydroxymethyl)pyrrolidine-1-carbonyl]thieno[3,2-b]pyridin-7-yloxy)-2-methylbenzo[b]thiophene-3-carboxylic acid cyclopropylamide]				94%	0.403 nM	0.105 µg/mL	2.35 µg·h/mL	0.666 µg/mL		504 nM	1.37 nM
COC[C@@H]1CCCN1C(=O)c1cc2nccc(Oc3ccc4c(C(=O)NC5CC5)c(C)sc4c3)c2s1 [Example 120, 6-[(2-{[(2S)-2-(Methoxymethyl)pyrrolidin-1-yl]carbonyl}thieno[3,2-b]pyridin-7-yl)oxy]-2-methylbenzo[b]thiophene-3-carboxylic acid cyclopropylamide]				93%	0.6 nM				405 nM	489 nM	0.491 nM
Cc1sc2cc(Oc3ccnc4cc(-c5nccn5C)sc34)ccc2c1C(=O)NC1CC1 [Example 117, 2-Methyl-6-{[2-(1-methyl-1H-imidazol-2-yl)thieno[3,2-b]pyridin-7-yl]oxy}benzo[b]thiophene-3-carboxylic acid cyclopropylamide]				87%	0.2 nM				189 nM	86 nM	0.07 nM
CNC(=O)c1c(C)n(C)c2cc(Oc3ccnc4cc(C(=O)N5CCCC5)sc34)ccc12 [Example 28, 1,2-Dimethyl-6-[2-(pyrrolidine-1-carbonyl)-thieno[3,2-b]pyridin-7-yloxy]-1H-indole-3-carboxylic acid methylamide]				78%	2.8 nM				15 nM	462 nM	0.272 nM
CO[C@@H]1CCN(C(=O)c2cc3nccc(Oc4ccc5c(C(=O)NCCN6CCOCC6)c(C)oc5c4)c3s2)C1 [Example 90, 6-[2-(3-Methoxy-pyrrolidine-1-carbonyl)-thieno[3,2-b]pyridin-7-yloxy]-2-methyl-benzofuran-3-carboxylic acid (2-morpholin-4-yl-ethyl)-amide]				93%	0.739 nM				33 nM	745 nM	2.14 nM
CNC(=O)c1c(C)n(C)c2cc(Oc3ccnc4cc(C(=O)N5CCC5)sc34)ccc12 [Example 25]				70%	4.08 nM				12 nM	7460 nM	0.45 nM
CCCNC(=O)c1c(C)n(C)c2cc(Oc3ccnc4cc(C(=O)N5CC[C@@H](O)C5)sc34)ccc12 [Example 59, 6-[2-(3-Hydroxy-pyrrolidine-1-carbonyl)-thieno[3,2-b]pyridin-7-yloxy]-1,2-dimethyl-3H-indole-3-carboxylic acid propylamide]				81%	1.38 nM				115 nM	1160 nM	0.045 nM
CNC(=O)c1c(C)n(C)c2cc(Oc3ccnc4cc(-c5nc(CO)cs5)sc34)ccc12 [Example 26, 1,2-Dimethyl-6-(2-[4-(hydroxymethyl)thiazol-2-yl]thieno[3,2-b]pyridin-7-yloxy)-1H-indole-3-carboxylic acid methylamide]				83%	3.66 nM				13 nM	2230 nM	0.74 nM

Further lines, with some results ahead:

inhibition at 0.1 µM [1]	IC50 (PDGFRβ; [3])	inhibition at 0.1 µM (FGF-R1)	inhibition at 0.05 µM [1]	Ki [1]	mouse Cmin, po (Mouse PK assay)	AUC (Mouse PK assay)	Cmax (Mouse PK assay)	IC50 (PDGFRβ; [4])	Compound	IC50 (Huvec)	IC50 [2]
100%	> 100 nM	56%							Cc1oc2cc(Oc3ccnc4ccsc34)ccc2c1C(=O)Nc1cc(C(C)(C)C)[nH]n1		
85%	> 100 nM	7%							Cc1oc2cc(Oc3ccnc4ccsc34)ccc2c1C(=O)Nc1cnc2ccccc2c1		
101%	> 100 nM	1%							Cc1oc2cc(Oc3ccnc4ccsc34)ccc2c1C(=O)Nc1cc(-c2ccco2)n[nH]1		
61%	> 100 nM	0%							Cc1oc2cc(Oc3ccnc4ccsc34)ccc2c1C(=O)Nc1n[nH]c2cccc(F)c12		
94%	> 100 nM	0%							Cc1oc2cc(Oc3ccnc4ccsc34)ccc2c1C(=O)Nc1cccc(-c2cc[nH]n2)c1		
75%	> 100 nM	35%							Cc1oc2cc(Oc3ccnc4ccsc34)ccc2c1C(=O)Nc1nncs1		
85%	~100 nM	0%							Cc1ccc(NC(=O)c2c(C)oc3cc(Oc4ccnc5ccsc45)ccc23)c(O)c1		
87%	57 nM	0%							Cc1oc2cc(Oc3ccnc4ccsc34)ccc2c1C(=O)Nc1ccc2cn[nH]c2c1		
96%	> 100 nM	0%							Cc1oc2cc(Oc3ccnc4ccsc34)ccc2c1C(=O)Nc1ccc2ncsc2c1		
96%	~100 nM	0%							Cc1oc2cc(Oc3ccnc4ccsc34)ccc2c1C(=O)Nc1ccc2[nH]ncc2c1		
